According to PMC2010101 (British Journal of Cancer, 1979):
pIC50: −log10 of the molar value. Read-outs that look alike come from different tables or passages of the source.

Target: T1, low-Km cAMP phosphodiesterase
T1 construct: gene Pde3b; not purified, mixture of isoenzymes
Assay: [3H]cAMP hydrolysis, paper chromatography
Type: biochemical, Rattus norvegicus
Details: 0.25 µM cAMP, 100 mM Tris-HCl pH 7.5, 4 mM MgCl2, 30 °C, 5 min, crude fraction, read-out: I50

Row | pIC50 (competitive) | SMILES | pIC50
1 | 3.10 | CN(C)N=Nc1[nH]cnc1C(N)=O [DTIC, 5-(3,3-dimethyl-1-triazeno)imidazole-4-carboxamide] | –
2 | – | Cn1c(=O)c2[nH]cnc2n(C)c1=O [theophylline] | 3.46
